Assay results from patent publication US6534524B1, “Indazole compounds and pharmaceutical compositions for inhibiting protein kinases, and methods for their use” (Agouron Pharmaceuticals, Inc., priority 1999, dated 2003).
Where two headings read alike, the source gives them in different places.

Tests used:
[1] = Determination of inhibitor concentration in mouse plasma after intraperitoneal and oral dosing; format: in vivo
Method: Blood collection was via ocular bleed at 0.5, 1, 4 hr with the final time point, 7 hour, via intracardiac puncture. The blood was centrifuged to collect plasma, which was then stored at −80° C. until analysis. Samples were prepared for analysis using an internal standard and sodium hydroxide. After vortexing, ethyl acetate was added and mixed for 15-20 minutes at ambient temperature. […] The samples were then analyzed via HPLC or LC-MS. Compound levels were quantitated by generating a standard curve of known compound concentration in mouse plasma.

[2] = tested on: human umbilical vein endothelial cells (HUVEC); assay: HUVEC proliferation assay (VEGF-stimulated, MTT); format: cell-based; details: crude reaction mixtures; for % inhibition of the proliferation of HUVEC: Library II, Y=S; for % inhibition: Library III, HUVEC proliferation, nominal concentration of 0.5 nM;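 on % inhibition of the proliferation of HUVEC: relative to VEGF-stimulated control minus starvation-medium baseline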
[3] = PO, 10 mg/kg, vehicle PEG400:H2O pH 2.3 60:40
[4] = PO, 25 mg/kg, vehicle PEG400:H2O pH 2.3 30:70
[5] = female, PO, 25 mg/kg, vehicle PEG400:H2O pH 2.3 30:70, read-out: Cmin (7 hr conc.)
[6] = IP, 25 mg/kg, vehicle PEG400:H2O pH 2.3 60:40
[7] = PO, 50 mg/kg, vehicle PEG400:H2O pH 2.3 60:40
[8] = IP, 25 mg/kg, vehicle PEG400:H2O pH 2.3 30:70
[9] = PO, 50 mg/kg, vehicle PEG400:H2O pH 2.3 30:70
[10] = 0.5 mM (column head; text: nominal 0.5 nM)
[11] = 2 mM (column head; text: nominal 2 nM)

Cc1cccc(C(=O)Nc2cccc(Oc3ccc4c(/C=C/c5ccccc5)n[nH]c4c3)c2)c1 [5b]
AUClast [1, 3]: 61 ng·h/mL
plasma half-life (T1/2) [1, 3]: 3.1 h

CCn1nc(C)cc1C(=O)Nc1cccc(Oc2ccc3c(/C=C/c4cn(C)c(C)n4)n[nH]c3c2)c1 [Example 31(f), 6-[3-((1-Ethyl-3-methyl-1H-pyrazol]-5-yl)carboxanido)phenoxyl-3-E-[2-(1,2-dimethyl-1Himidazol-4-yl)ethenyl]-1H-indazole]
plasma half-life (T1/2) [1, 4]: 2.6 h
AUC(0-t) ([1]; female, PO, 25 mg/kg, vehicle PEG400:H2O pH 2.3 30:70): > 245000 ng·h/mL
Cmax ([1]; female, PO, 25 mg/kg, vehicle PEG400:H2O pH 2.3 30:70, read-out: Cmax): > 50000 ng/mL
concentration at 7 h [1, 5]: 9520 ng/mL

Cc1ccc2cc(NC(=O)c3ccccc3Sc3ccc4c(/C=C/c5ccccn5)n[nH]c4c3)ccc2n1 [Example 33(b)]
AUClast [1, 6]: 11245 ng·h/mL
Cmax [1, 6]: 1990 ng/mL
plasma half-life (T1/2) [1, 6]: 3.0 h
AUClast [1, 7]: 3925 ng·h/mL
Cmax [1, 7]: 1496 ng/mL
plasma half-life (T1/2) [1, 7]: 3.0 h
concentration at 7 h ([1]; female, IP, 25 mg/kg, vehicle PEG400:H2O pH 2.3 60:40, read-out: Cmin (7 hr conc.)): 902 ng/mL
concentration at 7 h ([1]; female, PO, 50 mg/kg, vehicle PEG400:H2O pH 2.3 60:40, read-out: Cmin (7 hr conc.)): 76 ng/mL

CC(C)NC(=O)c1ccccc1Sc1ccc2c(/C=C/c3ccccn3)n[nH]c2c1 [Example 35(b), 6-[2-(i-Propylcarbamoyl)phenylsulfanyl]-3-E-[2-(pyridin-2-yl)ethenyl]-1H-indazole]
AUClast [1, 8]: 2840 ng·h/mL
plasma half-life (T1/2) [1, 8]: 0.8 h
AUClast [1, 9]: 4048 ng·h/mL
plasma half-life (T1/2) [1, 9]: 0.8 h
concentration at 7 h ([1]; female, IP, 25 mg/kg, vehicle PEG400:H2O pH 2.3 30:70, read-out: Cmin (7 hr conc.)): 12 ng/mL
concentration at 7 h ([1]; female, PO, 50 mg/kg, vehicle PEG400:H2O pH 2.3 30:70, read-out: Cmin (7 hr conc.)): 13 ng/mL

O=C(NCCc1cccs1)c1ccccc1Sc1ccc2c(/C=C/c3ccccn3)n[nH]c2c1 [Example 35(hh), 6-[2-(2-(Thien-2-yl)ethylcarbamoyl)phenylsulfanyl]-3-E-[2-(pyridin-2-yl)ethenyl]-1H-indazole]
AUClast [1, 4]: 292 ng·h/mL
plasma half-life (T1/2) [1, 4]: 1.7 h
concentration at 7 h [1, 5]: 5 ng/mL

Cc1cc(C(=O)Nc2cc(C(=O)c3ccc4c(/C=C/c5ccccn5)n[nH]c4c3)ccc2C)n(C)n1 [Example 41(hh), 6-[3-((1,3-Dimethyl-1H-pyrazol-5-yl)carboxaindo)-4-methylbenzoyl]-3-E-[2-(pyridin-2-yl)ethenyl]-1H-indazole]
AUClast [1, 4]: 5601 ng·h/mL
Cmax [1, 4]: 1526 ng/mL
plasma half-life (T1/2) [1, 4]: 7.9 h
concentration at 7 h [1, 5]: 405 ng/mL

Cc1cc(C(=O)Nc2cccc(C(=O)c3ccc4c(/C=C/c5ccccn5)n[nH]c4c3)c2)cc(Cl)n1 [Example 41(q), 6-[3-((2-Chloro-6-methylpyridin-4-yl)carboxanlido)benzoyl]-3-E-[2-(pyridin-2-yl)ethenyl]-1H-indazole]
plasma half-life (T1/2) [1, 4]: 5.2 h
AUC(0-t) ([1]; female, IP, 25 mg/kg, vehicle PEG400:H2O pH 2.3 30:70): > 27000 ng·h/mL

CCc1cc(C(=O)Nc2cccc(C(=O)c3ccc4c(/C=C/c5ccccn5)n[nH]c4c3)c2)n(C)n1 [Example 41(v), 6-[3-((3-Ethyl-1-methyl-1H-pyrazol-5-yl)carboxamido)benzoyl]-3-E-[2-(pyridin-2-yl)ethenyl]-1H-indazole]
AUClast [1, 4]: 10949 ng·h/mL
plasma half-life (T1/2) [1, 4]: 4.4 h
concentration at 7 h [1, 5]: 749 ng/mL

COc1ccc(NC(=O)c2ccc3c(-c4nc5ccccc5[nH]4)n[nH]c3c2)cc1O [drawing 607]
% inhibition of the proliferation of HUVEC [2, 10]: 19%
% inhibition of the proliferation of HUVEC [2, 11]: 89%

COC(=O)c1ccc(NC(=O)c2ccc3c(-c4nc5ccccc5[nH]4)n[nH]c3c2)o1 [drawing 608]
% inhibition of the proliferation of HUVEC [2, 10]: 38%
% inhibition of the proliferation of HUVEC [2, 11]: 2%

C=CCC(NC(=O)c1ccc2c(-c3nc4ccccc4[nH]3)n[nH]c2c1)c1ccccn1 (stereo not shown) [drawing 609]
% inhibition of the proliferation of HUVEC [2, 10]: 37%
% inhibition of the proliferation of HUVEC [2, 11]: 16%

COC(=O)c1cc(NC(=O)c2ccc3c(-c4nc5ccccc5[nH]4)n[nH]c3c2)ccc1O [drawing 610]
% inhibition of the proliferation of HUVEC [2, 10]: 39%
% inhibition of the proliferation of HUVEC [2, 11]: 15%

CC(C)CCNC(=O)c1ccccc1Sc1ccc2c(/C=C/c3ccccn3)n[nH]c2c1 [drawing 614]
% inhibition of the proliferation of HUVEC [2, 10]: 14%
% inhibition of the proliferation of HUVEC [2, 11]: 55%

O=C(NCC(F)(F)F)c1ccccc1Sc1ccc2c(/C=C/c3ccccn3)n[nH]c2c1 [drawing 626]
% inhibition of the proliferation of HUVEC [2, 10]: 34%
% inhibition of the proliferation of HUVEC [2, 11]: 61%

CNC(=O)c1ccccc1Sc1ccc2c(/C=C/c3ccccn3)n[nH]c2c1 [drawing 635]
% inhibition of the proliferation of HUVEC [2, 10]: 8%
% inhibition of the proliferation of HUVEC [2, 11]: 21%

CC(C)(C)CNC(=O)c1ccccc1Sc1ccc2c(/C=C/c3ccccn3)n[nH]c2c1 [drawing 687]
% inhibition of the proliferation of HUVEC [2, 10]: 5%
% inhibition of the proliferation of HUVEC [2, 11]: −6%

O=C(NCC1(O)CCCCC1)c1ccccc1Sc1ccc2c(/C=C/c3ccccn3)n[nH]c2c1 [drawing 688]
% inhibition of the proliferation of HUVEC [2, 10]: 26%
% inhibition of the proliferation of HUVEC [2, 11]: −19%

CCNC(=O)c1ccccc1Sc1ccc2c(/C=C/c3ccccn3)n[nH]c2c1 [drawing 696]
% inhibition of the proliferation of HUVEC [2, 10]: 16%
% inhibition of the proliferation of HUVEC [2, 11]: 17%

CC(C)(C)CNC(=O)c1ccccc1Sc1ccc2c(/C=C/c3ccccn3)n[nH]c2c1 [drawing 728]
% inhibition of the proliferation of HUVEC [2, 10]: 19%
% inhibition of the proliferation of HUVEC [2, 11]: 24%

CCOCCNC(=O)c1ccccc1Sc1ccc2c(/C=C/c3ccccn3)n[nH]c2c1 [drawing 732]
% inhibition of the proliferation of HUVEC [2, 10]: 53%
% inhibition of the proliferation of HUVEC [2, 11]: 75%

O=C(Nc1nccs1)c1ccccc1Sc1ccc2c(/C=C/c3ccccn3)n[nH]c2c1 [drawing 740]
% inhibition of the proliferation of HUVEC [2, 10]: 33%
% inhibition of the proliferation of HUVEC [2, 11]: 94%

O=C(NCC1CC1)c1ccccc1Sc1ccc2c(/C=C/c3ccccn3)n[nH]c2c1 [drawing 758]
% inhibition of the proliferation of HUVEC [2, 10]: 35%
% inhibition of the proliferation of HUVEC [2, 11]: 69%

O=C(NNc1ccccn1)c1ccccc1Sc1ccc2c(/C=C/c3ccccn3)n[nH]c2c1 [drawing 760]
% inhibition of the proliferation of HUVEC [2, 10]: 32%
% inhibition of the proliferation of HUVEC [2, 11]: 92%

Cc1ccc(CNC(=O)c2ccccc2Sc2ccc3c(/C=C/c4ccccn4)n[nH]c3c2)o1 [drawing 763]
% inhibition of the proliferation of HUVEC [2, 10]: 56%
% inhibition of the proliferation of HUVEC [2, 11]: 96%

O=C(NC1CCSC1=O)c1ccccc1Sc1ccc2c(/C=C/c3ccccn3)n[nH]c2c1 (stereo not shown) [drawing 785]
% inhibition of the proliferation of HUVEC [2, 10]: 25%
% inhibition of the proliferation of HUVEC [2, 11]: 40%

O=C(NCc1cccc(F)c1)c1ccccc1Sc1ccc2c(/C=C/c3ccccn3)n[nH]c2c1 [drawing 797]
% inhibition of the proliferation of HUVEC [2, 10]: 81%
% inhibition of the proliferation of HUVEC [2, 11]: 95%

CC(C)CC(CO)NC(=O)c1ccccc1Sc1ccc2c(C=Cc3ccccn3)n[nH]c2c1 (stereo not shown) [drawing 1015]
% inhibition ([2]; 0.0005 µM): −13%

CC(C)CC(CO)NC(=O)c1ccccc1Sc1ccc2c(C=Cc3ccccn3)n[nH]c2c1 (stereo not shown) [drawing 1021]
% inhibition [2]: −2%

O=C(Nc1cccc(Cl)c1)c1ccccc1Sc1ccc2c(/C=C/c3ccccn3)n[nH]c2c1 [drawing 1041]
% inhibition [2]: −15%

O=C(NC1CC1)c1ccccc1Sc1ccc2c(/C=C/c3ccccn3)n[nH]c2c1 [drawing 1069]
% inhibition [2]: 29%

C#CCNC(=O)c1ccccc1Sc1ccc2c(/C=C/c3ccccn3)n[nH]c2c1 [drawing 1123]
% inhibition [2]: 9%

O=C(Nc1ccccc1)c1ccccc1Sc1ccc2c(/C=C/c3ccccn3)n[nH]c2c1 [drawing 1131]
% inhibition [2]: 11%

O=C(NC1CCSC1=O)c1ccccc1Sc1ccc2c(/C=C/c3ccccn3)n[nH]c2c1 (stereo not shown) [drawing 1141]
% inhibition [2]: −8%

O=C(NCC1(O)CCCCC1)c1ccccc1Sc1ccc2c(/C=C/c3ccccn3)n[nH]c2c1 [drawing 1197]
% inhibition [2]: 2%
